Values quoted from earlier work as cited in US11180510B2, “Xanthine derivatives and uses thereof as inhibitors of bromodomains of BET proteins” (Centre national de la recherche scientifique, priority 2017, dated 2021).

Experiments:
c-Myc = details: known inhibitors, background statement; cited from earlier work
acute leukemia = details: phase I study; cited from earlier work
[1] = system: BD2 domain of BRD2 and BRD3; details: cited from earlier work

Row | Compound | effect on c-Myc expression (c-Myc) | clinical response in acute leukemia (acute leukemia) | bromodomain binding preference [1]
1 | COc1cc2c(cc1-c1c(C)noc1C)ncc1[nH]c(=O)n([C@H](C)c3ccccn3)c12 [I-BET151] | strong downregulation of c-Myc | – | –
2 | Cc1sc2c(c1C)C(c1ccc(Cl)cc1)=N[C@@H](CC(=O)OC(C)(C)C)c1nnc(C)n1-2 [JQ1] | strong downregulation of c-Myc | – | –
3 | Cc1sc2c(c1C)C(c1ccc(Cl)cc1)=N[C@@H](CC(=O)Nc1ccc(O)cc1)c1nnc(C)n1-2 [OTX015, (6S)-4-(4-chlorophenyl)-N-(4-hydroxyphenyl)-2,3,9-trimethyl-6H-thieno[3,2-f][1,2,4]triazolo[4,3-a][1,4]diazepine-6-acetamide] | – | induced remissions, including complete remission in two patients with refractory disease | –
4 | COc1cc(OC)c2c(=O)[nH]c(-c3cc(C)c(OCCO)c(C)c3)nc2c1 [RVX-208, 2-[4-(2-hydroxyethoxy)-3,5-dimethylphenyl]-5,7-dimethoxy-4(3H)-quinazolinone] | no significant effect | – | binds preferentially to the BD2 domain of BRD2 and BRD3
